ChEMBL document CHEMBL4342421, “Current scenario of tetrazole hybrids for antibacterial activity” (Eur J Med Chem, 2019)
Values after ≈ are worked out from the molar mass of the structure shown.

Each molecule was assayed on Aspergillus niger (assay: Antifungal activity against Aspergillus niger assessed as zone of inhibition at 250 ug/ml). Details: read-out: IZ.
Format: functional
With CC(=O)N1N=C(Cn2cc(-c3nn(-c4ccncc4)cc3-c3nnnn3-c3ccc(Br)cc3)c3cc(Cl)ccc32)OC1(C)c1ccc(C(F)(F)F)cc1 (configuration not stated) the zone of inhibition at 250 µg/mL was 8 to 20 mm.
Work on COc1ccc(-n2nnnc2-c2cn(-c3ccncc3)nc2-c2cn(CC3=NN(C(C)=O)C(C)(c4ccc(C(F)(F)F)cc4)O3)c3ccc(Cl)cc23)cc1 (configuration not stated) yielded a zone of inhibition at 250 µg/mL of 8 to 20 mm.
Work on CC(=O)N1N=C(Cn2cc(-c3nn(-c4ccncc4)cc3-c3nnnn3-c3ccc(C)cc3)c3cc(Cl)ccc32)OC1(C)c1ccc(C(F)(F)F)cc1 (configuration not stated) yielded a zone of inhibition at 250 µg/mL of 8 to 20 mm.
Molecule CC(=O)N1N=C(Cn2cc(-c3nn(-c4ccncc4)cc3-c3nnnn3-c3ccc(Cl)cc3)c3cc(Cl)ccc32)OC1(C)c1ccc(C(F)(F)F)cc1 (configuration not stated) has a zone of inhibition at 250 µg/mL of 8 to 20 mm.
For CC(=O)N1N=C(Cn2cc(-c3nn(-c4ccncc4)cc3-c3nnnn3-c3ccccc3)c3cc(Cl)ccc32)OC1(C)c1ccc(C(F)(F)F)cc1 (configuration not stated), the zone of inhibition at 250 µg/mL was 8 to 20 mm.
CC(=O)N1N=C(Cn2cc(-c3nn(-c4ccncc4)cc3-c3nnnn3-c3ccc(C(F)(F)F)cc3)c3cc(Cl)ccc32)OC1(C)c1ccc(C(F)(F)F)cc1 (configuration not stated) gave a zone of inhibition at 250 µg/mL of 8 to 20 mm.
For CC(=O)N1N=C(Cn2cc(-c3nn(-c4ccncc4)cc3-c3nnnn3-c3ccc([N+](=O)[O-])cc3)c3cc(Cl)ccc32)OC1(C)c1ccc(C(F)(F)F)cc1 (configuration not stated), the zone of inhibition at 250 µg/mL was 8 to 20 mm.

Each molecule was assayed on Staphylococcus aureus (assay: Antimicrobial activity against Staphylococcus aureus). Details: not given.
Format: functional
Work on Cc1ccc2cc(/C=C/C(=O)c3cccs3)c3nnnn3c2c1 yielded an MIC of 6.25 to 100 µg/mL (≈ 19.5 to 312 µM).
Molecule Cc1ccc2c(c1)cc(/C=C/C(=O)c1ccccn1)c1nnnn12 has an MIC of 6.25 to 100 µg/mL (≈ 19.8 to 317 µM).

The molecules below were run on Pseudomonas aeruginosa (assay: Antimicrobial activity against Pseudomonas aeruginosa). Details: not given.
Format: functional
Cc1ccc2cc(/C=C/C(=O)c3cccs3)c3nnnn3c2c1 showed an MIC of 6.25 to 100 µg/mL (≈ 19.5 to 312 µM).
Cc1ccc2c(c1)cc(/C=C/C(=O)c1ccccn1)c1nnnn12 gave an MIC of 6.25 to 100 µg/mL (≈ 19.8 to 317 µM).

Each molecule was assayed on Staphylococcus aureus (assay: Antimicrobial activity against Staphylococcus aureus assessed as zone of inhibition at 250 ug/ml). Details: read-out: IZ.
Format: functional
Work on CC(=O)N1N=C(Cn2cc(-c3nn(-c4ccncc4)cc3-c3nnnn3-c3ccc(Br)cc3)c3cc(Cl)ccc32)OC1(C)c1ccc(C(F)(F)F)cc1 (configuration not stated) yielded a zone of inhibition at 250 µg/mL of 8 to 20 mm.
For COc1ccc(-n2nnnc2-c2cn(-c3ccncc3)nc2-c2cn(CC3=NN(C(C)=O)C(C)(c4ccc(C(F)(F)F)cc4)O3)c3ccc(Cl)cc23)cc1 (configuration not stated), the zone of inhibition at 250 µg/mL was 8 to 20 mm.
For CC(=O)N1N=C(Cn2cc(-c3nn(-c4ccncc4)cc3-c3nnnn3-c3ccc(C)cc3)c3cc(Cl)ccc32)OC1(C)c1ccc(C(F)(F)F)cc1 (configuration not stated), the zone of inhibition at 250 µg/mL was 8 to 20 mm.
In the case of CC(=O)N1N=C(Cn2cc(-c3nn(-c4ccncc4)cc3-c3nnnn3-c3ccc(Cl)cc3)c3cc(Cl)ccc32)OC1(C)c1ccc(C(F)(F)F)cc1 (configuration not stated), the zone of inhibition at 250 µg/mL is reported as 8 to 20 mm.
CC(=O)N1N=C(Cn2cc(-c3nn(-c4ccncc4)cc3-c3nnnn3-c3ccccc3)c3cc(Cl)ccc32)OC1(C)c1ccc(C(F)(F)F)cc1 (configuration not stated) gave a zone of inhibition at 250 µg/mL of 8 to 20 mm.
CC(=O)N1N=C(Cn2cc(-c3nn(-c4ccncc4)cc3-c3nnnn3-c3ccc(C(F)(F)F)cc3)c3cc(Cl)ccc32)OC1(C)c1ccc(C(F)(F)F)cc1 (configuration not stated) gave a zone of inhibition at 250 µg/mL of 8 to 20 mm.
With CC(=O)N1N=C(Cn2cc(-c3nn(-c4ccncc4)cc3-c3nnnn3-c3ccc([N+](=O)[O-])cc3)c3cc(Cl)ccc32)OC1(C)c1ccc(C(F)(F)F)cc1 (configuration not stated) the zone of inhibition at 250 µg/mL was 8 to 20 mm.

Each molecule was assayed on Escherichia coli (assay: Antimicrobial activity against Escherichia coli). Details: not given.
Format: functional
Work on Cc1ccc2cc(/C=C/C(=O)c3cccs3)c3nnnn3c2c1 yielded an MIC of 6.25 to 100 µg/mL (≈ 19.5 to 312 µM).
Cc1ccc2c(c1)cc(/C=C/C(=O)c1ccccn1)c1nnnn12 gave an MIC of 6.25 to 100 µg/mL (≈ 19.8 to 317 µM).

What follows are molecules tested on Candida albicans (assay: Antifungal activity against Candida albicans assessed as zone of inhibition at 250 ug/ml). Details: read-out: IZ.
Format: functional
For CC(=O)N1N=C(Cn2cc(-c3nn(-c4ccncc4)cc3-c3nnnn3-c3ccc(Br)cc3)c3cc(Cl)ccc32)OC1(C)c1ccc(C(F)(F)F)cc1 (configuration not stated), the zone of inhibition at 250 µg/mL was 8 to 20 mm.
COc1ccc(-n2nnnc2-c2cn(-c3ccncc3)nc2-c2cn(CC3=NN(C(C)=O)C(C)(c4ccc(C(F)(F)F)cc4)O3)c3ccc(Cl)cc23)cc1 (configuration not stated) was tested, and the zone of inhibition at 250 µg/mL was 8 to 20 mm.
Work on CC(=O)N1N=C(Cn2cc(-c3nn(-c4ccncc4)cc3-c3nnnn3-c3ccc(C)cc3)c3cc(Cl)ccc32)OC1(C)c1ccc(C(F)(F)F)cc1 (configuration not stated) yielded a zone of inhibition at 250 µg/mL of 8 to 20 mm.
CC(=O)N1N=C(Cn2cc(-c3nn(-c4ccncc4)cc3-c3nnnn3-c3ccc(Cl)cc3)c3cc(Cl)ccc32)OC1(C)c1ccc(C(F)(F)F)cc1 (configuration not stated) showed a zone of inhibition at 250 µg/mL of 8 to 20 mm.
CC(=O)N1N=C(Cn2cc(-c3nn(-c4ccncc4)cc3-c3nnnn3-c3ccccc3)c3cc(Cl)ccc32)OC1(C)c1ccc(C(F)(F)F)cc1 (configuration not stated) gave a zone of inhibition at 250 µg/mL of 8 to 20 mm.
CC(=O)N1N=C(Cn2cc(-c3nn(-c4ccncc4)cc3-c3nnnn3-c3ccc(C(F)(F)F)cc3)c3cc(Cl)ccc32)OC1(C)c1ccc(C(F)(F)F)cc1 (configuration not stated) gave a zone of inhibition at 250 µg/mL of 8 to 20 mm.
CC(=O)N1N=C(Cn2cc(-c3nn(-c4ccncc4)cc3-c3nnnn3-c3ccc([N+](=O)[O-])cc3)c3cc(Cl)ccc32)OC1(C)c1ccc(C(F)(F)F)cc1 (configuration not stated) gave a zone of inhibition at 250 µg/mL of 8 to 20 mm.

Each molecule was assayed on Escherichia coli (assay: Antimicrobial activity against Escherichia coli assessed as zone of inhibition at 250 ug/ml). Details: read-out: IZ.
Format: functional
Molecule CC(=O)N1N=C(Cn2cc(-c3nn(-c4ccncc4)cc3-c3nnnn3-c3ccc(Br)cc3)c3cc(Cl)ccc32)OC1(C)c1ccc(C(F)(F)F)cc1 (configuration not stated) has a zone of inhibition at 250 µg/mL of 8 to 20 mm.
In the case of COc1ccc(-n2nnnc2-c2cn(-c3ccncc3)nc2-c2cn(CC3=NN(C(C)=O)C(C)(c4ccc(C(F)(F)F)cc4)O3)c3ccc(Cl)cc23)cc1 (configuration not stated), the zone of inhibition at 250 µg/mL is reported as 8 to 20 mm.
In the case of CC(=O)N1N=C(Cn2cc(-c3nn(-c4ccncc4)cc3-c3nnnn3-c3ccc(C)cc3)c3cc(Cl)ccc32)OC1(C)c1ccc(C(F)(F)F)cc1 (configuration not stated), the zone of inhibition at 250 µg/mL is reported as 8 to 20 mm.
CC(=O)N1N=C(Cn2cc(-c3nn(-c4ccncc4)cc3-c3nnnn3-c3ccc(Cl)cc3)c3cc(Cl)ccc32)OC1(C)c1ccc(C(F)(F)F)cc1 (configuration not stated) showed a zone of inhibition at 250 µg/mL of 8 to 20 mm.
CC(=O)N1N=C(Cn2cc(-c3nn(-c4ccncc4)cc3-c3nnnn3-c3ccccc3)c3cc(Cl)ccc32)OC1(C)c1ccc(C(F)(F)F)cc1 (configuration not stated) showed a zone of inhibition at 250 µg/mL of 8 to 20 mm.
With CC(=O)N1N=C(Cn2cc(-c3nn(-c4ccncc4)cc3-c3nnnn3-c3ccc(C(F)(F)F)cc3)c3cc(Cl)ccc32)OC1(C)c1ccc(C(F)(F)F)cc1 (configuration not stated) the zone of inhibition at 250 µg/mL was 8 to 20 mm.
With CC(=O)N1N=C(Cn2cc(-c3nn(-c4ccncc4)cc3-c3nnnn3-c3ccc([N+](=O)[O-])cc3)c3cc(Cl)ccc32)OC1(C)c1ccc(C(F)(F)F)cc1 (configuration not stated) the zone of inhibition at 250 µg/mL was 8 to 20 mm.

These molecules were tested on Pseudomonas aeruginosa (assay: Antimicrobial activity against Pseudomonas aeruginosa assessed as zone of inhibition at 250 ug/ml). Details: read-out: IZ.
Format: functional
CC(=O)N1N=C(Cn2cc(-c3nn(-c4ccncc4)cc3-c3nnnn3-c3ccc(Br)cc3)c3cc(Cl)ccc32)OC1(C)c1ccc(C(F)(F)F)cc1 (configuration not stated) was tested, and the zone of inhibition at 250 µg/mL was 8 to 20 mm.
In the case of COc1ccc(-n2nnnc2-c2cn(-c3ccncc3)nc2-c2cn(CC3=NN(C(C)=O)C(C)(c4ccc(C(F)(F)F)cc4)O3)c3ccc(Cl)cc23)cc1 (configuration not stated), the zone of inhibition at 250 µg/mL is reported as 8 to 20 mm.
Molecule CC(=O)N1N=C(Cn2cc(-c3nn(-c4ccncc4)cc3-c3nnnn3-c3ccc(C)cc3)c3cc(Cl)ccc32)OC1(C)c1ccc(C(F)(F)F)cc1 (configuration not stated) has a zone of inhibition at 250 µg/mL of 8 to 20 mm.
With CC(=O)N1N=C(Cn2cc(-c3nn(-c4ccncc4)cc3-c3nnnn3-c3ccc(Cl)cc3)c3cc(Cl)ccc32)OC1(C)c1ccc(C(F)(F)F)cc1 (configuration not stated) the zone of inhibition at 250 µg/mL was 8 to 20 mm.
CC(=O)N1N=C(Cn2cc(-c3nn(-c4ccncc4)cc3-c3nnnn3-c3ccccc3)c3cc(Cl)ccc32)OC1(C)c1ccc(C(F)(F)F)cc1 (configuration not stated) gave a zone of inhibition at 250 µg/mL of 8 to 20 mm.
In the case of CC(=O)N1N=C(Cn2cc(-c3nn(-c4ccncc4)cc3-c3nnnn3-c3ccc(C(F)(F)F)cc3)c3cc(Cl)ccc32)OC1(C)c1ccc(C(F)(F)F)cc1 (configuration not stated), the zone of inhibition at 250 µg/mL is reported as 8 to 20 mm.
CC(=O)N1N=C(Cn2cc(-c3nn(-c4ccncc4)cc3-c3nnnn3-c3ccc([N+](=O)[O-])cc3)c3cc(Cl)ccc32)OC1(C)c1ccc(C(F)(F)F)cc1 (configuration not stated) showed a zone of inhibition at 250 µg/mL of 8 to 20 mm.

Each molecule was assayed on Candida albicans (assay: Antifungal activity against Candida albicans). Details: not given.
Format: functional
Work on Cc1ccc2cc(/C=C/C(=O)c3cccs3)c3nnnn3c2c1 yielded an MIC of 6.25 to 100 µg/mL (≈ 19.5 to 312 µM).
Cc1ccc2c(c1)cc(/C=C/C(=O)c1ccccn1)c1nnnn12 was tested, and the MIC was 6.25 to 100 µg/mL (≈ 19.8 to 317 µM).

What follows are molecules tested on Aspergillus niger (assay: Antifungal activity against Aspergillus niger). Details: not given.
Format: functional
In the case of Cc1ccc2cc(/C=C/C(=O)c3cccs3)c3nnnn3c2c1, the MIC is reported as 6.25 to 100 µg/mL (≈ 19.5 to 312 µM).
Cc1ccc2c(c1)cc(/C=C/C(=O)c1ccccn1)c1nnnn12 showed an MIC of 6.25 to 100 µg/mL (≈ 19.8 to 317 µM).

The molecules below were run on Bacillus cereus (assay: Antimicrobial activity against Bacillus cereus assessed as zone of inhibition at 250 ug/ml). Details: read-out: IZ.
Format: functional
In the case of CC(=O)N1N=C(Cn2cc(-c3nn(-c4ccncc4)cc3-c3nnnn3-c3ccc(Br)cc3)c3cc(Cl)ccc32)OC1(C)c1ccc(C(F)(F)F)cc1 (configuration not stated), the zone of inhibition at 250 µg/mL is reported as 8 to 20 mm.
COc1ccc(-n2nnnc2-c2cn(-c3ccncc3)nc2-c2cn(CC3=NN(C(C)=O)C(C)(c4ccc(C(F)(F)F)cc4)O3)c3ccc(Cl)cc23)cc1 (configuration not stated) gave a zone of inhibition at 250 µg/mL of 8 to 20 mm.
With CC(=O)N1N=C(Cn2cc(-c3nn(-c4ccncc4)cc3-c3nnnn3-c3ccc(C)cc3)c3cc(Cl)ccc32)OC1(C)c1ccc(C(F)(F)F)cc1 (configuration not stated) the zone of inhibition at 250 µg/mL was 8 to 20 mm.
CC(=O)N1N=C(Cn2cc(-c3nn(-c4ccncc4)cc3-c3nnnn3-c3ccc(Cl)cc3)c3cc(Cl)ccc32)OC1(C)c1ccc(C(F)(F)F)cc1 (configuration not stated) showed a zone of inhibition at 250 µg/mL of 8 to 20 mm.
Molecule CC(=O)N1N=C(Cn2cc(-c3nn(-c4ccncc4)cc3-c3nnnn3-c3ccccc3)c3cc(Cl)ccc32)OC1(C)c1ccc(C(F)(F)F)cc1 (configuration not stated) has a zone of inhibition at 250 µg/mL of 8 to 20 mm.
With CC(=O)N1N=C(Cn2cc(-c3nn(-c4ccncc4)cc3-c3nnnn3-c3ccc(C(F)(F)F)cc3)c3cc(Cl)ccc32)OC1(C)c1ccc(C(F)(F)F)cc1 (configuration not stated) the zone of inhibition at 250 µg/mL was 8 to 20 mm.
For CC(=O)N1N=C(Cn2cc(-c3nn(-c4ccncc4)cc3-c3nnnn3-c3ccc([N+](=O)[O-])cc3)c3cc(Cl)ccc32)OC1(C)c1ccc(C(F)(F)F)cc1 (configuration not stated), the zone of inhibition at 250 µg/mL was 8 to 20 mm.
